In general, IC50 refers to the point on the concentration scale where inhibition reaches its midpoint.

Assay [1] has as its system stimulated primary human T cells. Description: T cell proliferation assay, Condition A (X-VIVO15). Format: cell-based. To be noted: Homo sapiens, T-cell, 96 h; Condition A: X-VIVO15 medium; anti-CD3/anti-CD28 beads, ATP, 4 days; CFSE-lo T cells. An outline of the steps: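 CFSE-labelled human CD3+ T cells (2×10^4/well) in serum-free X-VIVO15 were activated with anti-CD3/CD28 beads (1 bead:2 cells), pre-incubated 30 min with inhibitor, then cultured with 100 uM ATP for 4 days at 37 °C. Flow cytometry measured %CFSE^lo cells, and IC50/IC90 came from log-concentration curve fits.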

The test system is the same in assay [2]. Description: T cell proliferation assay, Condition B (X-VIVO15, 2% HSA and 0.1% AAG). The class given is cell-based. To be noted: Homo sapiens, T-cell, 96 h; Condition B: X-VIVO15 medium containing HSA and α1-Acid Glycoprotein; anti-CD3/anti-CD28 beads, ATP, 4 days; CFSE-lo T cells. An outline of the steps: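 CFSE-labelled CD3+ T cells from healthy donors (2×10^4/well) in X-VIVO15 with 2% HSA and 0.1% AAG were stimulated with anti-CD3/CD28 beads. After 30 min pre-incubation with inhibitor, ATP was added and cells were cultured 4 days at 37° C. Flow cytometry gave % CFSE^lo cells, with IC50/IC90 and pICF from curve fits.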

Turning to `C[C@H]1O[C@@H](n2cnc3c(SCc4ccc([N+](=O)[O-])cc4)ncnc32)[C@H](O)[C@@H]1O` [Compound 147], the half-maximal inhibitory concentration (IC50) in assay [1] lay within 1 to 20 nM; in assay [2], 20 to 500 nM.

Turning to `OCCOC[C@H]1O[C@@H](n2cnc3c(OCc4ccc(OC(F)(F)F)cc4)ncnc32)[C@H](O)[C@@H]1O` [Compound 175], the half-maximal inhibitory concentration (IC50) in assay [1] is 1 to 20 nM; in assay [2], 20 to 500 nM.

As to `C[C@H]1O[C@@H](n2cnc3c(OCc4ccc([N+](=O)[O-])cc4)ncnc32)[C@H](O)[C@@H]1O` [Compound 166], the 50% inhibitory concentration (IC50) fell in the range of 1 to 20 nM in assay [1] and 20 to 500 nM in assay [2].

Consider `C[C@H]1O[C@@H](n2cnc3c(N4CCc5ccc([N+](=O)[O-])cc5C4)ncnc32)[C@H](O)[C@@H]1O` [Compound 151], for which the values for the concentration for half-maximal inhibition (IC50) in assay [1] and in assay [2] were under 1 nM and 20 to 500 nM, respectively.

With `C[C@H]1O[C@@H](n2cnc3c(OCc4ccc(OC(F)F)cc4)ncnc32)[C@H](O)[C@@H]1O` [Compound 173], the IC50 in assay [1] lay within 1 to 20 nM; in assay [2], 20 to 500 nM.

Take `C[C@H]1O[C@@H](n2c(NC3CCOCC3)nc3c(OCc4ccc(C#N)cc4)ncnc32)[C@H](O)[C@@H]1O` [Compound 73]: the results for the half-inhibitory concentration (IC50) in assay [1] and in assay [2] were under 1 nM and 20 to 500 nM, respectively.

In the case of `C[C@H]1O[C@@H](n2c(NC3CCOCC3)nc3c(OCc4ccc(OC(F)F)nc4)ncnc32)[C@H](O)[C@@H]1O` [Compound 75], the figures for the IC50 in assay [1] and in assay [2] were under 1 nM and 20 to 500 nM, respectively.

On to `C[C@H]1O[C@@H](n2c(NC3CCC(O)CC3)nc3c(OCc4ccc([N+](=O)[O-])cc4)ncnc32)[C@H](O)[C@@H]1O` (some centres unmarked) [Compound 28], for which the values for the IC50 in assay [1] and in assay [2] were under 1 nM and 1 to 20 nM, respectively.

Turning to `C[C@H]1O[C@@H](n2c(N[C@H]3CCC(F)(F)C3)nc3c(OCc4ccc(C#N)cc4)ncnc32)[C@H](O)[C@@H]1O` [Compound 82], the IC50 in assay [1] was under 1 nM; in assay [2], 20 to 500 nM.

As to `C[C@H]1O[C@@H](n2c(NC3CCCC3)nc3c(OCc4ccc([N+](=O)[O-])cc4)ncnc32)[C@H](O)[C@@H]1O` [Compound 6], the results for the half-maximal inhibitory concentration (IC50) in assay [1] and in assay [2] were under 1 nM and 1 to 20 nM, respectively.

The values are drawn from patent US20260184712A1, “Heterocyclic Compounds as ENT Inhibitors and Compounds for Use in the Treatment of Cancers” (iTeos Belgium SA, priority 2022, published 2026).
